# Target: HIV-1 protease (Human immunodeficiency virus type 1 group M subtype B, UniProt P04585)
# Experiment: Inhibition constants against HIV-1 protease (method of Pennington et al.)
# Format: biochemical
# Settings: HIV-1 protease; read-out: Ki value
# Text: We measured the inhibition constants of the compounds listed in Table VII against HIV-1 protease using the above-cited method of Pennington et al.
row,Compound,Ki [nM]
1,CC(=O)Nc1ccc(S(=O)(=O)N(CC(C)C)C[C@@H](O)[C@H](Cc2ccccc2)NC(=O)OC(C)(C)C)cc1 [Compound 39],17
2,"O=C(N[C@@H](Cc1ccccc1)[C@H](O)CN(CC1CCCC1)S(=O)(=O)c1ccc(Cl)c(Cl)c1)O[C@H]1CCOC1 [Compound 183, 3,4-Dichloro-N-cyclopentylmethyl-N-((2 syn,3S)-2-hydroxy-4-phenyl-3-((S)-tetrahydrofuran-3-yloxycarbonylamino)-butyl)-benzenesulfonamide]",0.1
3,"COc1ccc(S(=O)(=O)N(CC2CCCCC2)C[C@@H](O)[C@H](Cc2ccccc2)NC(=O)O[C@H]2CCOC2)cc1 [Compound 158, N-Cyclohexylmethyl-N-((2 syn,3S)-2-hydroxy-4-phenyl-3-((S)-tetrahydrofuran-3-yloxycarbonylamino)-butyl)-4-methoxy-benzenesulfonamide]",< 0.1
4,"COc1ccc(S(=O)(=O)N(CC(C)C)C[C@@H](O)[C@H](Cc2ccccc2)NC(=O)O[C@H]2CCOC2)cc1 [Compound 100, N-((2 syn,3S)-2-Hydroxy-4-phenyl-3-((S)-tetrahydrofuran-3-yloxycarbonylamino)-butyl)-N-isobutyl-4-methoxy-benzenesulfonamide]",0.16
5,O=C(N[C@@H](Cc1ccccc1)[C@H](O)CN(CC1CCCC1)S(=O)(=O)c1ccc(F)cc1)OCc1cccnc1 [Compound 111],0.3
6,COc1ccc(S(=O)(=O)N(CC2CCCC2)C[C@@H](O)[C@H](Cc2ccccc2)NC(=O)O[C@@H]2CCN(C(=O)OC(C)(C)C)C2)cc1 [Compound 184],5
7,"NC(=O)C[C@H](NC(=O)c1ccc2ccccc2n1)C(=O)N[C@@H](Cc1ccccc1)[C@H](O)CN(Cc1ccccc1)S(=O)(=O)c1cccc2nonc12 [Compound 9, (S)-N-1-(3-((Benzo(1,2,5)oxadiazole-4-sulfonyl)-benzyl-amino)-(1S,2 syn)-1-benzyl-2-hydroxy-propyl)-2-((quinoline-2-carbonyl)-amino)-succinamide]",4
8,CC(=O)Nc1ccc(S(=O)(=O)N(CC(C)C)C[C@@H](O)[C@H](Cc2ccccc2)NC(=O)C(C)(C)NC(=O)OC(C)(C)C)cc1 [Compound 189],5500
9,CC(C)CN(C[C@@H](O)[C@H](Cc1ccccc1)NS(=O)(=O)N(C)C)S(=O)(=O)N(C)C [Compound 72],4000
10,CC(=O)Nc1ccc(S(=O)(=O)N(CC2CCCO2)CC(O)C(Cc2ccccc2)NC(=O)OC2CCOC2)cc1 (centres unmarked) [Compound 133],24
11,"O=C(N[C@@H](Cc1ccccc1)[C@H](O)CN(CC1CCCC1)S(=O)(=O)c1cccnc1)O[C@H]1CCOC1 [Compound 149, Pyridine-3-sulfonic acid cyclopentylmethyl-((2 syn,3S)-2-hydroxy-4-phenyl-3-((S)-tetrahydrofuran-3-yloxycarbonylamino)-butyl)-amide]",1.7
12,COc1ccc(S(=O)(=O)N(C[C@@H](O)[C@H](Cc2ccccc2)NC(=O)O[C@H]2CCOC2)CN2CCCCC2)cc1 [Compound 1013],1500
13,CC(C)(C)OC(=O)N[C@@H](Cc1ccccc1)[C@H](O)CN(CC1CC1)S(=O)(=O)c1ccc(F)cc1 [Compound 74],11
14,C=CCOC(=O)N[C@@H](Cc1ccccc1)[C@H](O)CN(CC1CCCC1)S(=O)(=O)c1ccc(Cl)cc1 [Compound 117],0.26
15,"C=C(COC)COC(=O)N[C@@H](Cc1ccccc1)[C@H](O)CN(CC(C)C)S(=O)(=O)c1ccc(NC(C)=O)cc1 [Compound 155, N-4-((2-(syn)-Hydroxy-3-((2-methoxymethyl-allyloxycarbonylamino)-4-(S)-phenyl-butyl)-isobutyl-sulfamoyl)-phenyl)-acetamide]",1.7
16,CC(C)CN(C[C@@H](O)[C@H](Cc1ccccc1)NC(=O)OC(C)(C)C)S(=O)(=O)c1cccc2nonc12 [Compound 58],34
17,"CC(C)CN(C[C@@H](O)[C@H](Cc1ccccc1)NC(=O)[C@H](CC(N)=O)NC(=O)c1ccc2ccccc2n1)S(=O)(=O)N(C)C [Compound 21, N-1-((1S-2 syn)-1-Benzyl-2-hydroxy-3-(1-isobutyl-3,3-dimethylsulfonylurea)-propyl)-2-((quinoline-2-carbonyl)-amino)-succinamide]",0.7
18,CC(C)CN(C[C@@H](O)[C@H](Cc1ccccc1)NS(=O)(=O)N(C)C)S(=O)(=O)c1cccc2nonc12 [Compound 71],470
19,CC(C)CN(C[C@@H](O)[C@H](Cc1ccccc1)NC(=O)O[C@H](C)c1ccccc1)S(=O)(=O)c1cccc2nonc12 [Compound 59],206
20,"O=C(N[C@@H](Cc1ccccc1)[C@H](O)CN(CC1CCCCC1)S(=O)(=O)c1ccc(F)cc1)O[C@H]1CCOC1 [Compound 159, N-Cyclohexylmethyl-4-fluoro-N-((2 syn,3S)-2-hydroxy-4-phenyl-3-((S)-tetrahydrofuran-3-yloxycarbonylamino)-butyl)-benzenesulfonamide]",0.2
21,CC(=O)Nc1ccc(S(=O)(=O)N(C)C[C@@H](O)[C@H](Cc2ccccc2)NC(=O)OC(C)(C)C)cc1 [Compound 128],> 5000
22,Cc1nc(C)c(S(=O)(=O)N(CC(C)C)C[C@@H](O)[C@H](Cc2ccccc2)NC(=O)OC(C)(C)C)s1 [Compound 46],154

row,Compound,Ki [nM]
1,"O=C(N[C@@H](Cc1ccccc1)[C@H](O)CN(CC1CCCC1)S(=O)(=O)c1ccc(O)cc1)OCc1cccnc1 [Compound 166, N-cyclopentylmethyl-4-hydroxy-N-((2 syn,3S)-2-hydroxy-4-phenyl-3-(pyridin-3-yl-methoxycarbonylamino)-butyl)-benzenesulfonamide]",< 0.1
2,"CC(C)CN(C[C@@H](O)[C@H](Cc1ccccc1)NC(=O)O[C@H]1CCOC1)S(=O)(=O)c1ccc(Cl)cc1 [Compound 99, 4-Chloro-N-((2 syn,3S)-2-hydroxy-4-phenyl-3-((S)-tetrahydrofuran-3-yloxycarbonylamino)-butyl)-isobutyl-benzenesulfonamide]",0.24
3,"CC(C)CN(C[C@@H](O)[C@H](Cc1ccccc1)NC(=O)[C@H](CC(N)=O)NC(=O)c1ccc2ccccc2n1)S(=O)(=O)c1cccc2nonc12 [Compound 20, (S)-N-1-(3-((Benzo(1,2,5)oxadiazole-4-sulfonyl)-isobutyl-amino)-(1S,2 syn)-1-benzyl-2-hydroxy-propyl)-2-((quinoline-2-carbonyl)-amino)-succinamide]",0.1
4,CC(C)CN(C[C@@H](O)[C@H](Cc1ccccc1)NC(=O)O[C@H]1CCOC1)S(=O)(=O)c1cc(Cl)c(Cl)s1 [Compound 95],1.3
5,CS(=O)(=O)N(Cc1ccccc1)C[C@@H](O)[C@H](Cc1ccccc1)NC(=O)[C@H](CC(N)=O)NC(=O)c1ccc2ccccc2n1 [Compound 8],850
6,"CC(C)CN(C[C@@H](O)[C@H](Cc1ccccc1)NC(=O)O[C@H]1CCOC1)S(=O)(=O)N1CCCCC1 [Compound 150, Piperidine-1-sulfonic acid ((2 syn,3S)-2-hydroxy-4-phenyl-3-((S)-tetrahydrofuran-3-yloxycarbonylamino)-butyl)-isobutyl-amide]",6
7,C=C(C)CN(C[C@@H](O)[C@H](Cc1ccccc1)NC(=O)OC(C)(C)C)S(=O)(=O)c1ccc(NC(C)=O)cc1 [Compound 131],60
8,CC(=O)Nc1ccc(S(=O)(=O)N(CC(C)C)C[C@@H](O)[C@H](Cc2ccccc2)NC(=O)[C@@H]2CCC(=O)N2)cc1 [Compound 43],4200
9,CC(=O)Nc1nc(C)c(S(=O)(=O)N(Cc2ccccc2)C[C@@H](O)[C@H](Cc2ccccc2)NC(=O)[C@H](CC(N)=O)NC(=O)c2ccc3ccccc3n2)s1 [Compound 5],2
10,CC(C)CN(C[C@@H](O)[C@H](Cc1ccccc1)NC(=O)OC(C)(C)C)S(=O)(=O)c1ccc(F)cc1 [Compound 32],2.5
11,"CCOC(=O)N[C@@H](Cc1ccccc1)[C@H](O)CN(CC1CCCC1)S(=O)(=O)c1ccc(F)cc1 [Compound 115, N-Cyclopentylmethyl-N-((3-ethoxycarbonylamino)-(2 syn,3S)-2-hydroxy-4-phenyl-butyl)-4-fluoro-benzenesulfonamide]",0.5
12,N#Cc1ccc(S(=O)(=O)N(CC2CCCC2)C[C@@H](O)[C@H](Cc2ccccc2)NC(=O)O[C@H]2CCOC2)cc1 [Compound 181],0.3
13,COc1ccc(S(=O)(=O)N(CC2CCCC2)C[C@@H](O)[C@H](Cc2ccccc2)NC(=O)OCc2cccc(OC)c2)cc1 [Compound 178],0.1
14,"O=C(N[C@@H](Cc1ccccc1)[C@H](O)CN(CC1CCCC1)S(=O)(=O)c1ccc(Cl)cc1)O[C@H]1CCOC1 [Compound 116, 4-Chloro-N-cyclopentylmethyl-N-((2 syn,3S)-2-hydroxy-4-phenyl-3-((S)-tetrahydrofuran-3-yloxycarbonylamino)-butyl)-benzenesulfonamide]",< 0.1
15,CC(=O)Nc1ccc(S(=O)(=O)N(CC(C)C)CC(O)C(Cc2ccccc2)NC(=O)OCC2COC(=O)N2)cc1 (centres unmarked) [Compound 110],28
16,CC(C)CN(C[C@@H](O)[C@H](Cc1ccccc1)NC(=O)COc1ccccc1)S(=O)(=O)c1cccc2nonc12 [Compound 57],200
17,NC(=O)C[C@H](NC(=O)c1ccc2ccccc2n1)C(=O)N[C@@H](Cc1ccccc1)[C@H](O)CN(Cc1ccccc1)S(=O)(=O)c1cccc(C(=O)O)c1 [Compound 7],8
18,C=C(COC)COC(=O)N[C@@H](Cc1ccccc1)[C@H](O)CN(CC1CCCC1)S(=O)(=O)c1ccc(OC)cc1 [Compound 162],0.5
19,Cc1noc(C)c1S(=O)(=O)N(Cc1ccccc1)C[C@@H](O)[C@H](Cc1ccccc1)NC(=O)[C@H](CC(N)=O)NC(=O)c1ccc2ccccc2n1 [Compound 3],32
20,CC(=O)Nc1ccc(S(=O)(=O)N(CC(C)C)C[C@@H](O)[C@H](Cc2ccccc2)NC(=O)O[C@H]2CCOC2)cc1Cl [Compound 53],27
21,O=C(NC(Cc1ccccc1)C(O)CN(CC1CCCO1)S(=O)(=O)c1ccc(F)cc1)OC1CCOC1 (centres unmarked) [Compound 132],6
22,CC(C)CN(C[C@@H](O)[C@H](Cc1ccccc1)NC(=O)O[C@H]1CCOC1)S(=O)(=O)c1ccc(OC(F)(F)F)cc1 [Compound 152],2.5

# — patent publication US20080293727A1, “Novel sulfonamide inhibitors of aspartyl protease” (priority 1992, published 2008)
